We go through 10 compounds from patent US9181193B2, “Indenoquinolone compound, preparation method and use thereof” (Second Military Medical University, PLA, priority 2010, dated 2015).

What all share (format): cell-based
The subject of experiment [1] is HepG2 (human hepatoma cells). As to the kind of experiment: MTT in vitro anti-tumor activity test, HepG2. As to conditions: MTT assay, HepG2 cells; for HepG2 IC50: 72 h incubation; for HepG2 100 μg/mL IC %: inhibition at 100 μg/mL, 72 h.
Experiment [2] deals with MDA-MB-435 (human breast cancer cells). In words: MTT in vitro anti-tumor activity test, MDA-MB-435. The note with it: MTT assay, MDA-MB-435 cells; for MDA-MB-435 IC50: 72 h incubation; for MDA-MB-435 100 μg/mL IC %: inhibition at 100 μg/mL, 72 h.
Experiment [3] deals with Colo205 (human colon cancer cells). In words: MTT in vitro anti-tumor activity test, Colo205. As to conditions: MTT assay, Colo205 cells; for Colo205 IC50: 72 h incubation; for Colo205 100 μg/mL IC %: inhibition at 100 μg/mL, 72 h.
Experiment [4] concerns A549 (human lung cancer cells). As to the kind of experiment: MTT in vitro anti-tumor activity test, A549. The note with it: MTT assay, A549 cells; for A549 IC50: 72 h incubation; for A549 100 μg/mL IC %: inhibition at 100 μg/mL, 72 h.

SMILES strings stand for the structures.

As to `O=C1c2cc(Cl)ccc2-c2c1c1ccccc1n(CCN1CCCC1)c2=O` [Compound 37], in experiment [1], the “HepG2 IC50” value was greater than 100 µg/mL and the “HepG2 100 μg/mL IC %” value was 24.95%. Also, in experiment [2], the “MDA-MB-435 IC50” value is 41.01 µg/mL and the “MDA-MB-435 100 μg/mL IC %” value was 70.26%. In addition, in experiment [3], the “Colo205 IC50” value is 36.76 µg/mL and the “Colo205 100 μg/mL IC %” value came out at 69.37%. Further, in experiment [4], the “A549 IC50” value came to 58.58 µg/mL and the “A549 100 μg/mL IC %” value was determined as 61.64%.

As to `O=C1c2cc(Cl)ccc2-c2c1c1ccccc1n(CCn1ccnc1)c2=O` [Compound 38], in experiment [1], the “HepG2 IC50” value amounted to 22.97 µg/mL and the “HepG2 100 μg/mL IC %” value amounted to 88.62%. Further, in experiment [2], the “MDA-MB-435 IC50” value is 9.37 µg/mL and the “MDA-MB-435 100 μg/mL IC %” value turned out to be 100%. In experiment [3], the “Colo205 IC50” value amounted to 18.77 µg/mL and the “Colo205 100 μg/mL IC %” value is listed as 95.16%. Also, in experiment [4], the “A549 IC50” value amounted to 13.16 µg/mL and the “A549 100 μg/mL IC %” value amounted to 100%.

Consider `O=C1c2cc(Cl)ccc2-c2c1c1ccccc1n(CCN1CCCCC1)c2=O` [Compound 39], for which, in experiment [1], the “HepG2 IC50” value is greater than 100 µg/mL and the “HepG2 100 μg/mL IC %” value is on record as 22.39%. Besides, in experiment [2], the “MDA-MB-435 IC50” value was greater than 100 µg/mL and the “MDA-MB-435 100 μg/mL IC %” value was 14.88%. Further, in experiment [3], the “Colo205 IC50” value is greater than 100 µg/mL and the “Colo205 100 μg/mL IC %” value amounted to 13.12%. For the same compound, in experiment [4], the “A549 IC50” value is greater than 100 µg/mL and the “A549 100 μg/mL IC %” value came to 47.81%.

On to `CN(C)CCCn1c(=O)c2c(c3ccccc31)C(=O)c1cc(Cl)ccc1-2` [Compound 40], for which, in experiment [1], the “HepG2 IC50” value turned out to be 11.51 µg/mL and the “HepG2 100 μg/mL IC %” value stood at 100%. For the same compound, in experiment [2], the “MDA-MB-435 IC50” value was found to be 1.52 µg/mL and the “MDA-MB-435 100 μg/mL IC %” value is 100%. Also, in experiment [3], the “Colo205 IC50” value turned out to be 3.16 µg/mL and the “Colo205 100 μg/mL IC %” value is 100%. In experiment [4], the “A549 IC50” value is 3.25 µg/mL and the “A549 100 μg/mL IC %” value was 86.70%.

As for `COc1ccc2c(c1)C(=O)c1c-2c(=O)n(CCN(C)C)c2ccc(OC)cc12` [Compound 41], in experiment [1], the “HepG2 IC50” value is 3.36 µg/mL and the “HepG2 100 μg/mL IC %” value was 85.01%. In experiment [2], the “MDA-MB-435 IC50” value came to 0.703 µg/mL and the “MDA-MB-435 100 μg/mL IC %” value was 77.77%. For the same compound, in experiment [3], the “Colo205 IC50” value is 0.632 µg/mL and the “Colo205 100 μg/mL IC %” value is recorded as 83.62%. In experiment [4], the “A549 IC50” value is recorded as “≈100 μg/mL” and the “A549 100 μg/mL IC %” value is on record as 49.27%.

For `COc1ccc2c(c1)-c1c(c3cc(OC)ccc3n(CCN(C)C)c1=O)C2=O` [Compound 42], in experiment [1], the “HepG2 IC50” value came to 3.77 µg/mL and the “HepG2 100 μg/mL IC %” value amounted to 100%. In experiment [2], the “MDA-MB-435 IC50” value was 3.12 µg/mL and the “MDA-MB-435 100 μg/mL IC %” value worked out at 100%. In experiment [3], the “Colo205 IC50” value came to 1.27 µg/mL and the “Colo205 100 μg/mL IC %” value was determined as 100%. In addition, in experiment [4], the “A549 IC50” value was 8.03 µg/mL and the “A549 100 μg/mL IC %” value amounted to 87.75%.

`COc1ccc2c(c1)c1c(c(=O)n2CCn2ccnc2)-c2ccc(Br)cc2C1=O` [Compound 43]: in experiment [1], the “HepG2 IC50” value was greater than 100 µg/mL and the “HepG2 100 μg/mL IC %” value was 9.73%. For the same compound, in experiment [2], the “MDA-MB-435 IC50” value is 83.60 µg/mL and the “MDA-MB-435 100 μg/mL IC %” value was determined as 53.07%. Moreover, in experiment [3], the “Colo205 IC50” value came out at 34.21 µg/mL and the “Colo205 100 μg/mL IC %” value is reported as 87.42%. Moreover, in experiment [4], the “A549 IC50” value was greater than 100 µg/mL and the “A549 100 μg/mL IC %” value is recorded as 4.26%.

For the compound `COc1ccc2c(c1)C(=O)c1c-2c(=O)n(CCN2CCCC2)c2cc(OC)c(OC)cc12` [Compound 44], in experiment [1], the “HepG2 IC50” value amounted to 1.93 µg/mL and the “HepG2 100 μg/mL IC %” value stood at 84.59%. Further, in experiment [2], the “MDA-MB-435 IC50” value came out at 0.014 µg/mL and the “MDA-MB-435 100 μg/mL IC %” value is 78.20%. Further, in experiment [3], the “Colo205 IC50” value was found to be 0.346 µg/mL and the “Colo205 100 μg/mL IC %” value is on record as 92.66%. Further, in experiment [4], the “A549 IC50” value is 1.42 µg/mL and the “A549 100 μg/mL IC %” value turned out to be 94.74%.

Consider `COc1ccc2c(c1)C(=O)c1c-2c(=O)n(CCN2CCOCC2)c2cc(OC)c(OC)cc12` [Compound 45], for which, in experiment [1], the “HepG2 IC50” value was 6.27 µg/mL and the “HepG2 100 μg/mL IC %” value is reported as 84.31%. In experiment [2], the “MDA-MB-435 IC50” value was 7.86 µg/mL and the “MDA-MB-435 100 μg/mL IC %” value was determined as 72.95%. Further, in experiment [3], the “Colo205 IC50” value stood at 16.76 µg/mL and the “Colo205 100 μg/mL IC %” value came to 66.89%. In experiment [4], the “A549 IC50” value was found to be 37.85 µg/mL and the “A549 100 μg/mL IC %” value was 62.84%.

Turning to `COc1cc2c3c(c(=O)n(CCN(C)C)c2cc1OC)-c1ccc(Cl)cc1C3=O` [Compound 47], in experiment [1], the “HepG2 IC50” value worked out at 8.33 µg/mL and the “HepG2 100 μg/mL IC %” value stood at 64.50%. Further, in experiment [2], the “MDA-MB-435 IC50” value came to 5.30 µg/mL and the “MDA-MB-435 100 μg/mL IC %” value amounted to 100%. In experiment [3], the “Colo205 IC50” value worked out at 1.66 µg/mL and the “Colo205 100 μg/mL IC %” value is given as 88.74%. Besides, in experiment [4], the “A549 IC50” value was 10.60 µg/mL and the “A549 100 μg/mL IC %” value was 87.20%.
